Data taken from patent publication US7407963B2, “Cyclopropane CGRP antagonists, medicaments containing these compounds, and method for the production thereof” (Boehringer Ingelheim Pharma GmbH & Co. KG, priority 1999, dated 2008).

melting point [°C]	Structure (SMILES)
235	CN(C)CCOc1ccc2c(c1)CN(C1CCN(C(=O)[C@@H]3C[C@H]3C(=O)c3cc(Br)c(N)c(Br)c3)CC1)C(=O)N2 (relative stereo) [Item No. 16, trans-3-{1-[2-(4-amino-3,5-dibromobenzoyl)cyclopropanecarbonyl]-4-piperidinyl}-3,4-dihydro-6-[2-(dimethylamino)ethoxy]-2(1H)-quinazolinone]
272 to 273	O=C(c1ccc(Cl)cc1)[C@H]1C[C@H]1C(=O)N1CCC(N2Cc3ccccc3NC2=O)CC1 (relative stereo) [Item No. 1, cis-3-{1-[2-(4-chlorobenzoyl)cyclopropanecarbonyl]-4-piperidinyl}-3,4-dihydro-2(1H)-quinazolinone]
248	Nc1c(Br)cc(C(=O)[C@@H]2C[C@H]2C(=O)N2CCC(n3cc(-c4ccccc4C(F)(F)F)[nH]c3=O)CC2)cc1Br (relative stereo) [Item No. 18, trans-1-{1-[2-(4-amino-3,5-dibromobenzoyl)cyclopropanecarbonyl]-4-piperidinyl}-1,3-dihydro-4-[2-(trifluoromethyl)phenyl]-2(2H)-imidazolone]
